In patent US20220363686A1 (AiCuris GmbH & Co. KG, priority 2018, published 2022):

Tests used:
HBV = test: Determination of HBV DNA from the supernatants of HepAD38 cells (anti-HBV activity); type: cell-based, hepatitis B virus; conditions: Hepatitis B virus, HePAD38, 144 h, HBV DNA in HepAD38 supernatant, day 6, qPCR; read-out: Cell Activity
Experimental: The anti-HBV activity was analysed in the stable transfected cell line HepAD38, which has been described to secrete high levels of HBV virion particles (Ladner et al., 1997). In brief, HepAD38 cells were cultured at 37° C. at 5% CO2 and 95% humidity in 200 μl maintenance medium, which was Dulbecco's modified Eagle's medium/Nutrient Mixture F-12 (Gibco, Karlsruhe), 10% fetal bovine serum (PAN Biotech Aidenbach) supplemented with 50 μg/ml penicillin/streptomycin (Gibco, Karlsruhe), 2 mM L-glutamine (PAN Biotech, Aidenbach), 400 μg/ml G418 (AppliChem, Darmstadt) and 0.3 μg/ml tetracycline. Cells were subcultured once a week in a 1:5 ratio, but were usually not passaged more than ten times. For the assay 60,000 cells were seeded in maintenance medium without any tetracycline into each well of a 96-well plate and treated with serial half-log dilutions of test compound. To minimize edge effects the outer 36 wells of the plate were not used but were filled with assay medium. On each assay plate six wells for the virus control (untreated HepAD38 cells) and six wells for the cell control (HepAD38 cells treated with 0.3 μg/ml tetracycline) were allocated, respectively. In addition, one plate set with reference inhibitors like BAY 41-4109, entecavir, and lamivudine instead of screening compounds were prepared in each experiment. In general, experiments were performed thrice in triplicates. At day 6 HBV DNA from 100 μl filtrated cell culture supernatant (AcroPrep Advance 96 Filter Plate, […] Supor membran, PALL GmbH, Dreieich) was automatically purified on the MagNa Pure LC instrument using the MagNA Pure 96 DNA and Viral NA Small Volume Kit (Roche Diagnostics, Mannheim) according to the instructions of the manufacturer. EC50 values were calculated from relative copy numbers of HBV DNA In brief, 5 μl of the 100 μl eluate containing HBV DNA were subjected to PCR LC480 Probes Master Kit (Roche) together with 1 μM antisense primer […], 0.5 μM sense primer […], 0.3 μM hybprobes […]-FL and LC640-[…]-PH (TIBMolBiol, Berlin) to a final volume of 12.5 μl. The PCR was performed on the Light Cycler 480 real time system (Roche Diagnostics, Mannheim) using the following protocol: Pre-incubation for 1 min at 95° C., amplification: 40 cycles×(10 sec at 95° C., 50 sec at 60° C., 1 sec at 70° C.), cooling for 10 sec at 40° C. Viral load was quantitated against known standards using HBV plasmid DNA of pCH-9/3091 (Nassal et al., 1990, Cell 63: 1357-1363) and the LightCycler 480 SW 1.5 software (Roche Diagnostics, Mannheim) and ECso values were calculated using non-linear regression with GraphPad Prism 6 (GraphPad Software Inc., La Jolla, USA).

[1] = Cell viability assay (AlamarBlue); conditions: human, HepAD38 cells
Experimental: Using the AlamarBlue viability assay cytotoxicity was evaluated in HepAD38 cells in the presence of 0.3 μg/ml tetracycline, which blocks the expression of the HBV genome. Assay condition and plate layout were in analogy to the anti-HBV assay, however other controls were used. On each assay plate six wells containing untreated HepAD38 cells were used as the 100% viability control, and six wells filled with assay medium only were used as 0% viability control. In addition, a geometric concentration series of cycloheximide starting at 60 μM final assay concentration was used as positive control in each experiment. After six days incubation period Alamar Blue Presto cell viability reagent (ThermoFisher, Dreieich) was added in 1/11 dilution to each well of the assay plate. After an incubation for 30 to 45 min at 37° C. the fluorescence signal, which is proportional to the number of living cells, was read using a Tecan Spectrafluor Plus plate reader with an excitation filter 550 nm and emission filter 595 nm, respectively. Data were normalized into percentages of the untreated control (100% viability) and assay medium (0% viability) before CC50 values were calculated using non-linear regression and the GraphPad Prism 6.0 (GraphPad Software, La Jolla, USA). Mean EC50 and CC50 values were used to calculate the selectivity index (SI=CC50/EC50) for each test compound.

[2] = biological target: HBV core protein (C-terminal truncated core protein containing 149 amino acids of the N-terminal assembly domain) (UniProt P03146); test: Biochemical capsid assembly assay (fluorescence quenching); parameters: rows headed: Assembly Activity; other: BODIPY-FL labelled core protein, assembly started with NaCl, read after 6 min; conditions: read-out: Assembly Activity; BODIPY-FL labelled core protein, assembly started with NaCl, read after 6 min
Experimental: The screening for assembly effector activity was done based on a fluorescence quenching assay published by Zotnick et al. (2007). The C-terminal truncated core protein containing 149 amino acids of the N-terminal assembly domain fused to a unique cysteine residue at position 150 and was expressed in E. coli using the pET expression system (Merck Chemicals, Darmstadt). Purification of core dimer protein was performed using a sequence of size exclusion chromatography steps. In brief, the cell pellet from 1 L BL21 (DE3) Rosetta2 culture expressing the coding sequence of core protein cloned NdeI/XhoI into expression plasmid pET21b was treated for 1 h on ice with a native lysis buffer (Qproteome Bacterial Protein Prep Kit; Qiagen, Hilden). After a centrifugation step the supernatant was precipitated during 2 h stirring on ice with 0.23 g/ml of solid ammonium sulfate. Following further centrifugation the resulting pellet was resolved in buffer A (100 mM Tris, pH 7.5; 100 mM NaCl; 2 mM DTT) and was subsequently loaded onto a buffer A equilibrated CaptoCore 700 column (GE HealthCare, Frankfurt). The column flow through containing the assembled HBV capsid was dialyzed against buffer N (50 mM NaHCO3 pH 9.6; 5 mM DTT) before urea was added to a final concentration of 3M to dissociate the capsid into core dimers for 1.5 h on ice. The protein solution was then loaded onto a IL Sephacryl S300 column. After elution with buffer N core dimer containing fractions were identified by SDS-PAGE and subsequently pooled and dialyzed against 50 mM HEPES pH 7.5; 5 mM DTT. To improve the assembly capacity of the purified core dimers a second round of assembly and disassembly starting with the addition of 5 M NaCl and including the size exclusion chromatography steps described above was performed. From the last chromatography step core dimer containing fractions were pooled and stored in aliquots at concentrations between 1.5 to 2.0 mg/ml at −80° C.
Immediately before labelling the core protein was reduced by adding freshly prepared DTT in a final concentration of 20 mM. After 40 min incubation on ice storage buffer and DTT was removed using a Sephadex G-25 column (GE HealthCare, Frankfurt) and 50 mM HEPES, pH 7.5. For labelling 1.6 mg/ml core protein was incubated at 4° C. and darkness overnight with BODIPY-FL maleimide (Invitrogen, Karlsruhe) in a final concentration of 1 mM. After labelling the free dye was removed by an additional desalting step using a Sephadex G-25 column. Labelled core dimers were stored in aliquots at 4° C. In the dimeric state the fluorescence signal of the labelled core protein is high and is quenched during the assembly of the core dimers to high molecular capsid structures. The screening assay was performed in black 384 well microtiter plates in a total assay volume of 10 μl using 50 mM HEPES pH 7.5 and 1.0 to 2.0 μM labelled core protein. Each screening compound was added in 8 different concentrations using a 0.5 log-unit serial dilution starting at a final concentration of 100 μM, 31.6 μM or 10 μM, In any case the DMSO concentration over the entire microtiter plate was 0.5%. The assembly reaction was started by the injection of NaCl to a final concentration of […] which induces the assembly process to approximately 25% of the maximal quenched signal. 6 min after starting the reaction the fluorescence signal was measured using a Clariostar plate reader (BMG Labtech, Ortenberg) with an excitation of 477 nm and an emission of 525 nm. As 100% and 0% assembly control HEPES buffer containing 2.5 M and 0 M NaCl was used. Experiments were performed thrice in triplicates. EC50 values were calculated by non-linear regression analysis using the Graph Pad Prism 6 software (GraphPad Software, La Jolla, USA).

Sequence of HBV core protein (C-terminal truncated core protein containing 149 amino acids of the N-terminal assembly domain) (P03146 whole entry, the tested form may be a part): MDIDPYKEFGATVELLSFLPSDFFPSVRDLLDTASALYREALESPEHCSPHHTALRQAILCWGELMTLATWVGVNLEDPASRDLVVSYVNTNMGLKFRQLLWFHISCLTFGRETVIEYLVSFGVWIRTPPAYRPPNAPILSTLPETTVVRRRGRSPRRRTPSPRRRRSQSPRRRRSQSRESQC

Compound | EC50 (HBV) [µM] | CC50 at 6 days [1] [µM] | IC50 [2] [µM]
O=C(NC1(CCOC(F)F)CCC1)c1cnn2c1CN(C(=O)c1cc3ccccc3[nH]1)CC2 [Example 123, N-{1-[2-(difluoromethoxy)ethyl]cyclobutyl}-5-(1H-indole-2-carbonyl)-4H,5H,6H,7H-pyrazolo[1,5-a]pyrazine-3-carboxamide] | < 1 | > 10 | < 5
O=C(c1cc2ccccc2[nH]1)N1CCn2ncc(S(=O)(=O)NCCO)c2C1 [Example 29, N-(2-hydroxyethyl)-5-(1H-indole-2-carbonyl)-4H,5H,6H,7H-pyrazolo[1,5-a]pyrazine-3-sulfonamide] | < 1 | > 10 | < 5
CC1Cn2ncc(C(=O)NC3(COC(F)F)CC3)c2CN1C(=O)c1cc2cc(F)c(F)cc2[nH]1 (stereo not drawn) [Example 94, 5-(5,6-difluoro-1H-indole-2-carbonyl)-N-{1-[(difluoromethoxy)methyl]cyclopropyl}-6-methyl-4H,5H,6H,7H-pyrazolo[1,5-a]pyrazine-3-carboxamide] | < 1 | > 10 | < 5
CN(C(=O)c1cnn2c1CN(C(=O)c1cc3ccccc3[nH]1)CC2)C1(c2ncccn2)CC1 [Example 47, 5-(1H-indole-2-carbonyl)-N-methyl-N-[1-(pyrimidin-2-yl)cyclopropyl]-4H,5H,6H,7H-pyrazolo[1,5-a]pyrazine-3-carboxamide] | < 1 | > 10 | < 5
CN(C(=O)c1cnn2c1CN(C(=O)c1cc3c(F)ccc(F)c3[nH]1)CC2)C1(CO)CC1 [Example 82, 5-(4,7-difluoro-1H-indole-2-carbonyl)-N-[1-(hydroxymethyl)cyclopropyl]-N-methyl-4H,5H,6H,7H-pyrazolo[1,5-a]pyrazine-3-carboxamide] | < 1 | > 10 | < 5
O=C(NC1(c2ccccn2)CC1)c1cnn2c1CN(C(=O)c1cc3ccccc3[nH]1)CC2 [Example 61, 5-(1H-indole-2-carbonyl)-N-[1-(pyridin-2-yl)cyclopropyl]-4H,5H,6H,7H-pyrazolo[1,5-a]pyrazine-3-carboxamide] | < 1 | > 10 | < 5
Cc1cc(F)cc2[nH]c(C(=O)N3CCn4ncc(C(=O)N[C@H](C)C(F)(F)F)c4C3)cc12 [Example 112, 5-(6-fluoro-4-methyl-1H-indole-2-carbonyl)-N-[(2R)-1,1,1-trifluoropropan-2-yl]-4H,5H,6H,7H-pyrazolo[1,5-a]pyrazine-3-carboxamide] | < 1 | > 10 | < 5
CN(C(=O)c1cnn2c1CN(C(=O)c1cc3ccccc3[nH]1)CC2)C1(c2cccnc2)CC1 [Example 72, 5-(1H-indole-2-carbonyl)-N-methyl-N-[1-(pyridin-3-yl)cyclopropyl]-4H,5H,6H,7H-pyrazolo[1,5-a]pyrazine-3-carboxamide] | < 1 | > 10 | < 5
COCC1(NC(=O)c2cnn3c2CN(C(=O)c2cc4ccccc4[nH]2)CC3)CC1 [Example 50, 5-(1H-indole-2-carbonyl)-N-[1-(methoxymethyl)cyclopropyl]-4H,5H,6H,7H-pyrazolo[1,5-a]pyrazine-3-carboxamide] | < 1 | > 10 | < 5
CCOCC1(N(C)C(=O)c2cnn3c2CN(C(=O)c2cc4ccccc4[nH]2)CC3)CC1 [Example 12, N-[1-(ethoxymethyl)cyclopropyl]-5-(1H-indole-2-carbonyl)-N-methyl-4H,5H,6H,7H-pyrazolo[1,5-a]pyrazine-3-carboxamide] | < 1 | > 10 | < 5
C[C@@H](NC(=O)c1cnn2c1CN(C(=O)c1cc3cc(Cl)c(F)cc3[nH]1)CC2)C(F)(F)F [Example 116, 5-(5-chloro-6-fluoro-1H-indole-2-carbonyl)-N-[(2R)-1,1,1-trifluoropropan-2-yl]-4H,5H,6H,7H-pyrazolo[1,5-a]pyrazine-3-carboxamide] | < 1 | > 10 | < 5
CN(Cc1ccnn1C)C(=O)c1cnn2c1CN(C(=O)c1cc3ccccc3[nH]1)CC2 [Example 55, 5-(1H-indole-2-carbonyl)-N-methyl-N-[(1-methyl-1H-pyrazol-5-yl)methyl]-4H,5H,6H,7H-pyrazolo[1,5-a]pyrazine-3-carboxamide] | < 1 | > 10 | < 5
CN(C(=O)c1cnn2c1CN(C(=O)c1cc3c(Cl)cc(F)cc3[nH]1)CC2)C1(COC(F)F)CC1 [Example 25, 5-(4-chloro-6-fluoro-1H-indole-2-carbonyl)-N-{1-[(difluoromethoxy)methyl]cyclopropyl}-N-methyl-4H,5H,6H,7H-pyrazolo[1,5-a]pyrazine-3-carboxamide] | < 1 | > 10 | < 5
CN(C(=O)c1cnn2c1CN(C(=O)c1cc3c(Cl)cccc3[nH]1)CC2)C1(CO)CC1 [Example 13, 5-(4-chloro-1H-indole-2-carbonyl)-N-[1-(hydroxymethyl)cyclopropyl]-N-methyl-4H,5H,6H,7H-pyrazolo[1,5-a]pyrazine-3-carboxamide] | < 1 | > 10 | < 5
